Reference: ChEMBL document CHEMBL5465560, “Selectivity Literature for EUbOPEN Chemogenomic Library” (2024)
One block for each compound: values may come before it.

Key:
D(2) dopamine receptor = D(2) dopamine receptor (Homo sapiens, UniProt P14416); test: Selectivity interaction (Dopamine D2 receptor assay, human recombinant ) EUB0000877a DRD2
[1] = biological target: 5-hydroxytryptamine receptor 1B (Homo sapiens) (UniProt P28222); test: Selectivity interaction (Panel of kinases, GPCRs, ion channels and transporters (enzymatic assay)) EUB0000266bCl HTR1B
[2] = biological target: Cyclin-dependent kinase 11B (Homo sapiens) (UniProt P21127); details: at 10 µM
[3] = biological target: Cyclin-dependent kinase 2 (Homo sapiens, UniProt P24941); test: Selectivity interaction (ActivX KiNativ screen (kinase selectivity in THP-1 cell lysates)) EUB0000639a CDK2; type: subcellular; details: lysate, at 1 µM
[4] = biological target: Cyclin-dependent kinase 5/CDK5 activator 1 (Homo sapiens) (UniProt Q00535+Q15078); test: Selectivity interaction (Kinase panel (Invitrogen)) EUB0000639a CDK5; type: protein-complex assay; details: at 200 nM
[5] = biological target: Mitogen-activated protein kinase kinase kinase 10 (Homo sapiens) (UniProt Q02779); test: Selectivity interaction (ProQinase) EUB0000171b MAP3K10
[6] = biological target: Beta-1 adrenergic receptor (Homo sapiens, UniProt P08588); test: Selectivity interaction (Panel of non-epigenetic targets (kinases, GPCRs, ion channels, and transporters, Eurofins) ) EUB0000271b ADRB1; details: at 1 µM
[7] = biological target: Calcium/calmodulin-dependent protein kinase type 1G (Homo sapiens) (UniProt Q96NX5); test: Selectivity interaction (Kinase panel (DSF assay)) EUB0001559a CAMK1G
[8] = biological target: T1, Ephrin type-B receptor 4 (Homo sapiens) (UniProt P54760); test: Selectivity interaction (KinomeScan (DiscoverX)) EUB0000595a EPHB4; details: at 10 µM
T1 sequence (whole entry): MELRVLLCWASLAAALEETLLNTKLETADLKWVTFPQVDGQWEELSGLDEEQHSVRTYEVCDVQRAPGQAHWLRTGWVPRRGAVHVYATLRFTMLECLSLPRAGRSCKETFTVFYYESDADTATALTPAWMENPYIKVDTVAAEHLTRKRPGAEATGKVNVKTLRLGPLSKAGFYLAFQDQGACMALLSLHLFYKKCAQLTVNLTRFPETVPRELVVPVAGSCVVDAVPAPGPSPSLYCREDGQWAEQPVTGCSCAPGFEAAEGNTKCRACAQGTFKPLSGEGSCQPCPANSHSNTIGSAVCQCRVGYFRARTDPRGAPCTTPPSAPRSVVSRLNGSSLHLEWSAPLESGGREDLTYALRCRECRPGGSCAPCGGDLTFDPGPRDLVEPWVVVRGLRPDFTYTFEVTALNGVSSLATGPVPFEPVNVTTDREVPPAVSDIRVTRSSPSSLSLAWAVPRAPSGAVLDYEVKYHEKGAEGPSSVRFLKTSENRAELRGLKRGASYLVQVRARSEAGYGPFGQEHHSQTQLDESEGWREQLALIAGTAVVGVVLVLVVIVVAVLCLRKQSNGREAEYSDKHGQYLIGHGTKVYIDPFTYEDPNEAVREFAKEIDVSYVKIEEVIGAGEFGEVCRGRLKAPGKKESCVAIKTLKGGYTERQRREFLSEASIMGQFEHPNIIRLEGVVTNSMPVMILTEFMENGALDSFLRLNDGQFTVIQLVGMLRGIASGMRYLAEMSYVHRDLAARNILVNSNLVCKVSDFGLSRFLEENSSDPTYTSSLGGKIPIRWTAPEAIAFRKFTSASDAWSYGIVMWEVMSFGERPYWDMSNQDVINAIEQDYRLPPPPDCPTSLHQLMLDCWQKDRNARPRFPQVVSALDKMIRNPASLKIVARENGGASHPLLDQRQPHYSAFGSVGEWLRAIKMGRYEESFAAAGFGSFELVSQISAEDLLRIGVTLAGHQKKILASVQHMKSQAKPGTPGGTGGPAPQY

[9] = biological target: RAC-alpha serine/threonine-protein kinase (Homo sapiens, UniProt P31749); test: Selectivity interaction (KinomeScan (DiscoverX)) EUB0001049a AKT1; details: at 1 µM
[10] = biological target: Serine/threonine-protein kinase 32B (Homo sapiens) (UniProt Q9NY57); test: Selectivity interaction (KinomeScan (DiscoverX)) EUB0001049a STK32B; details: at 1 µM
[11] = biological target: T2, Serine/threonine-protein kinase DCLK1 (Homo sapiens) (UniProt O15075); test: Selectivity interaction (Kinase panel (DSF assay)) EUB0001558a DCLK1
T2 sequence (whole entry): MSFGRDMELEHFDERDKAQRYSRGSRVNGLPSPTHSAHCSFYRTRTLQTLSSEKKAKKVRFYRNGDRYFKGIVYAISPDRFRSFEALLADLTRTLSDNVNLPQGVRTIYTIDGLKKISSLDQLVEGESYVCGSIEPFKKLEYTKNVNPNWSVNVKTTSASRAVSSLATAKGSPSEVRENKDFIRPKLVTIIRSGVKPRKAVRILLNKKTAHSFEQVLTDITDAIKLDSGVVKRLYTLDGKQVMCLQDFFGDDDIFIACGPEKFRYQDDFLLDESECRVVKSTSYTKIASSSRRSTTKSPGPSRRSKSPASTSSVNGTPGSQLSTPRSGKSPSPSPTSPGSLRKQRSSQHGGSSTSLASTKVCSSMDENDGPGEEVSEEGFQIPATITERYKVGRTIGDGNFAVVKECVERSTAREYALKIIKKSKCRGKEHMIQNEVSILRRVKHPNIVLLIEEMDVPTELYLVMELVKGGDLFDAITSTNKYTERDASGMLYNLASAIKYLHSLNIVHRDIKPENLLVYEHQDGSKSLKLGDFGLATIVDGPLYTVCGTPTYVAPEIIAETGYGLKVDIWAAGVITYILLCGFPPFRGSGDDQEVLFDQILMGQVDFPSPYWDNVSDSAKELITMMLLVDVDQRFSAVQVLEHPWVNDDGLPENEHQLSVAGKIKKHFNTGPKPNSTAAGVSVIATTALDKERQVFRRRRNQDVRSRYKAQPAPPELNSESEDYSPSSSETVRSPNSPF

[12] = biological target: Rho-associated protein kinase 2 (Homo sapiens, UniProt O75116); test: Selectivity interaction (KinomeScan (DiscoverX)) EUB0000092b ROCK2; details: at 10 µM
Sequence of Rho-associated protein kinase 2 (O75116 whole entry, looked up): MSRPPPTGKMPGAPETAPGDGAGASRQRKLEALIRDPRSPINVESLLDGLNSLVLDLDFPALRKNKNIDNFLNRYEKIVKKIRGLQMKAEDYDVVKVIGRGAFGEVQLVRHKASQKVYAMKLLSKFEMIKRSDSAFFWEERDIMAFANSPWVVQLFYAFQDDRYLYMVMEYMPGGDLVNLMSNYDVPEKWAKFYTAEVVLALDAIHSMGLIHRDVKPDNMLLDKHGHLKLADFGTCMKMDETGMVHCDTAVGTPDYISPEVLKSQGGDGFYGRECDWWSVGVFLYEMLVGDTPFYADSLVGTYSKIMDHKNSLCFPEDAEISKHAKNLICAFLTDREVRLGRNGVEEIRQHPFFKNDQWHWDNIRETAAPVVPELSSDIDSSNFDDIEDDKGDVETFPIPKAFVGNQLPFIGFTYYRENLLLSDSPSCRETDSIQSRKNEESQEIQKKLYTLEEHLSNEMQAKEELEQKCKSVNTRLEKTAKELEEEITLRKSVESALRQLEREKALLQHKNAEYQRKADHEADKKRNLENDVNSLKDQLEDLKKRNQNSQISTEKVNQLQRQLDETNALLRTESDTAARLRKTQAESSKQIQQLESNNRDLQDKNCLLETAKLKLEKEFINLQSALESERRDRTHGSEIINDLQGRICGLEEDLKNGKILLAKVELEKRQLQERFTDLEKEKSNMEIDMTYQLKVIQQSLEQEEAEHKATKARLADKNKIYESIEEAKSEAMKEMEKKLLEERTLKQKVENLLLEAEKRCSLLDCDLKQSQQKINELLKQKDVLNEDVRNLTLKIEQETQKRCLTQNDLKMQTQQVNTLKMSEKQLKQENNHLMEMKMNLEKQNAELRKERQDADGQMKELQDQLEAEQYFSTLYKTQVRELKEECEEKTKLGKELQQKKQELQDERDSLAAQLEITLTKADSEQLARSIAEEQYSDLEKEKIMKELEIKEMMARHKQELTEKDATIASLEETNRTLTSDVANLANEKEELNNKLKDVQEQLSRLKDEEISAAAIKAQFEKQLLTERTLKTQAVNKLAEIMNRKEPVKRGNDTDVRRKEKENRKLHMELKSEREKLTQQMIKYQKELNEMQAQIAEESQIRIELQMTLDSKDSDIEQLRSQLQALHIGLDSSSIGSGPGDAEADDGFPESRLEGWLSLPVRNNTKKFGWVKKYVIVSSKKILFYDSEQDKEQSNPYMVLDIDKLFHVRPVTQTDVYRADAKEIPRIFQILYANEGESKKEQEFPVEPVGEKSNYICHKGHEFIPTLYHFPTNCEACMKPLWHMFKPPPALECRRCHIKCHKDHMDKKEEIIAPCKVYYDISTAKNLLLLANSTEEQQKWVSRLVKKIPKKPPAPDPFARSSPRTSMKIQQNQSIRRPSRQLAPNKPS

Sequence of Mitogen-activated protein kinase kinase kinase 10 (Homo sapiens) (Q02779 whole entry, looked up): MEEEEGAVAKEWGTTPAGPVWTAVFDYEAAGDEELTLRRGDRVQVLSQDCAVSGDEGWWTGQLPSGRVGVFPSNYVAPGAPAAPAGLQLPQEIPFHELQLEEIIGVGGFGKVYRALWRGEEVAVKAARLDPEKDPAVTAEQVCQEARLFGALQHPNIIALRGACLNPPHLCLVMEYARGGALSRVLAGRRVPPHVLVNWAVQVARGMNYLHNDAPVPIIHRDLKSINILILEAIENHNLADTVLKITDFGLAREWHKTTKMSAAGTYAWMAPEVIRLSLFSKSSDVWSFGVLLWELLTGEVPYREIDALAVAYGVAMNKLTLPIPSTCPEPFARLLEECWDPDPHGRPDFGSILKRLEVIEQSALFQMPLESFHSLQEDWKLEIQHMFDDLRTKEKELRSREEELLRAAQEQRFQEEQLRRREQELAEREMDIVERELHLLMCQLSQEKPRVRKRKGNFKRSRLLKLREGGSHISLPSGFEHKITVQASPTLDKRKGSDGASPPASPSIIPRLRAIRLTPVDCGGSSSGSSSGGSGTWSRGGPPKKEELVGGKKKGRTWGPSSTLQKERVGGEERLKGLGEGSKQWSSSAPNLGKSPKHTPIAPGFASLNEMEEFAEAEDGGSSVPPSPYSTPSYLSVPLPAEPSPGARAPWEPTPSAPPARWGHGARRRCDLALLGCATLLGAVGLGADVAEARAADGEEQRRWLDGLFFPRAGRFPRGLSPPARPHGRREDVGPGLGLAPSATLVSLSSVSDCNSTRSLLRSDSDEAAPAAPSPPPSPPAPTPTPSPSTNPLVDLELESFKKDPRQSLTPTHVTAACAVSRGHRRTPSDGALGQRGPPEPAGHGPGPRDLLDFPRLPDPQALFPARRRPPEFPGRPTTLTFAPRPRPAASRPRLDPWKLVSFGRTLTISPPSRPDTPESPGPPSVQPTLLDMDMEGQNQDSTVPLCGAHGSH
Sequence of D(2) dopamine receptor (P14416 whole entry): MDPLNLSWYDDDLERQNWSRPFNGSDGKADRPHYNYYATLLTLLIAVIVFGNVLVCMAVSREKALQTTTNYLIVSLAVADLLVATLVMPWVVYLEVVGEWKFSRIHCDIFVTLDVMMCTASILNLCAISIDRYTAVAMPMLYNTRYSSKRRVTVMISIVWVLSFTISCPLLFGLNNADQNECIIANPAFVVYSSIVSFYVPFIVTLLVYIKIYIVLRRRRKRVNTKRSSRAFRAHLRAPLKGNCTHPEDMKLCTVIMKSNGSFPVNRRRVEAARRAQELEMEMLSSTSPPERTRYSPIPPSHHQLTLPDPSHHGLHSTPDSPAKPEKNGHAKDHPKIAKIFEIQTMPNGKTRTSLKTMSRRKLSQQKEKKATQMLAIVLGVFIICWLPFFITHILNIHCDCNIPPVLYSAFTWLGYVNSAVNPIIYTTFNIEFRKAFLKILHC
Sequence of Cyclin-dependent kinase 5/CDK5 activator 1 (Homo sapiens) (Q00535 whole entry): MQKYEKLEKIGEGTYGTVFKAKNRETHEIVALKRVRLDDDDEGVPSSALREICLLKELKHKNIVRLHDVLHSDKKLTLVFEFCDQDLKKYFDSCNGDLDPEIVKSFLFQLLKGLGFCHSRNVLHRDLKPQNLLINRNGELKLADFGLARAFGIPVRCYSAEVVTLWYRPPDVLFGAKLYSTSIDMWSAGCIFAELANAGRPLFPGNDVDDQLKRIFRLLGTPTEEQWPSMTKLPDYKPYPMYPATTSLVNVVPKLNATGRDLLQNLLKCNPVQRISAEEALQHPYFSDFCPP
Sequence of Cyclin-dependent kinase 5/CDK5 activator 1 (Homo sapiens) (Q15078 99-307 partner limits assumed): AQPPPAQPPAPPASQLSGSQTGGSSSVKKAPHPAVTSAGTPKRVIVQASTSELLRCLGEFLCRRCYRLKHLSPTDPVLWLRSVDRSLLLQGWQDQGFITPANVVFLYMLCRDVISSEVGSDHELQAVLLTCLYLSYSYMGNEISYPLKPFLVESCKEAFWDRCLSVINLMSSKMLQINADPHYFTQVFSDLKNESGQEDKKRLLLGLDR
Sequence of 5-hydroxytryptamine receptor 1B (Homo sapiens) (P28222 whole entry): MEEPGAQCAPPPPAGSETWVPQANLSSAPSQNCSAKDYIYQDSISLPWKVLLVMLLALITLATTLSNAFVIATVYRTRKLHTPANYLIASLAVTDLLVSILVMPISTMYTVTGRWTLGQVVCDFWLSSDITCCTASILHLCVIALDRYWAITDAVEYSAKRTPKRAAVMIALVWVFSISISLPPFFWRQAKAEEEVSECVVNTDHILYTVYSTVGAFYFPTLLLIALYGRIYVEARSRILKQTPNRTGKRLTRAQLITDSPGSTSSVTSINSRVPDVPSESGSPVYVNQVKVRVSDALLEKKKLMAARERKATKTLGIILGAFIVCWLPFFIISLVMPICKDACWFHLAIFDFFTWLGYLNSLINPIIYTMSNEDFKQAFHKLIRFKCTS
Sequence of RAC-alpha serine/threonine-protein kinase (P31749 whole entry): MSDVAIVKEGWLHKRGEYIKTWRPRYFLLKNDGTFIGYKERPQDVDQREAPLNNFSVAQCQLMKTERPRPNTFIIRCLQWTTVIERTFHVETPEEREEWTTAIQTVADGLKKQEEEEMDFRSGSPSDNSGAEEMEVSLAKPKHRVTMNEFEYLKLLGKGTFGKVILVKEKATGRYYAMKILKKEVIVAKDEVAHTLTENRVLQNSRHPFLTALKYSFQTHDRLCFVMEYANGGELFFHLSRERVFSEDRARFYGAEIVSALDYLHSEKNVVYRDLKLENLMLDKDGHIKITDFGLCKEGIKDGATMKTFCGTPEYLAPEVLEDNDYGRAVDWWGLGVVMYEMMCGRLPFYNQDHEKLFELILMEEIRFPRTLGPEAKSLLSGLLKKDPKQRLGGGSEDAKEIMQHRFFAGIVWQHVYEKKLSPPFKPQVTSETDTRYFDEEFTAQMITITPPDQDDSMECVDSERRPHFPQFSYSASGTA
Sequence of Calcium/calmodulin-dependent protein kinase type 1G (Homo sapiens) (Q96NX5 whole entry): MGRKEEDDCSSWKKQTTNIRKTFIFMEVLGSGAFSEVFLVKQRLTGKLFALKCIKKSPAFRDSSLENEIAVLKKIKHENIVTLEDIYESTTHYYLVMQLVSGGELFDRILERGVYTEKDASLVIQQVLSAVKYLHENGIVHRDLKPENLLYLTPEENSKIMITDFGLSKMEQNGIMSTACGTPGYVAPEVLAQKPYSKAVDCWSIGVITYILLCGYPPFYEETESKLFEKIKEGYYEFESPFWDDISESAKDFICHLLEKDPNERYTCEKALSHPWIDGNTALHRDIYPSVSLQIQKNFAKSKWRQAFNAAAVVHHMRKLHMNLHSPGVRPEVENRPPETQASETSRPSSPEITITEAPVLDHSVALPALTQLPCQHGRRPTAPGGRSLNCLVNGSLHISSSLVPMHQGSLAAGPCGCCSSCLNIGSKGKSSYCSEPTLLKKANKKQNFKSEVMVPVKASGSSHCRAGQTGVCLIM

Structure (SMILES): CCC(=O)N1CC[C@H](Nc2ncnc3c2CN(c2cnc(OC)c(C(F)(F)F)c2)CC3)C1 [LENIOLISIB]
IC50 (D(2) dopamine receptor): > 30 µM

Structure (SMILES): CCN(CC)CCCCNc1ncc2cc(-c3cc(OC)cc(OC)c3)c(NC(=O)NC(C)(C)C)nc2n1
% of control [2]: 100%

Structure (SMILES): CC[C@@H]1[C@H](F)C(=O)N[C@@H]1COc1nccc2cc(C(N)=O)c(OC)cc12 [ZIMLOVISERTIB]
% of inhibition [3]: -10.5% | % of inhibition [4]: 4.16%

Structure (SMILES): Cc1cc(C)cc([C@@H]2c3cc(C)ccc3NC(=O)CN2C(=O)c2ccc(Br)s2)c1
% of inhibition [6]: -13%

Structure (SMILES): COCC(=O)NC/C=C/c1ccc2ncnc(Nc3ccc(Oc4ccc(C)nc4)c(C)c3)c2c1 [CP-724714]
% of control [8]: 95%

Structure (SMILES): COc1cc(Nc2nc(C)cc(-c3cnn4nc(OC)ccc34)n2)cc(C(F)(F)F)c1
% of control [9]: 100% | % of control [10]: 100%

Structure (SMILES): CC(C)(O)[C@H](F)CN1Cc2cc(NC(=O)c3cnn4cccnc34)c(N3CCOCC3)cc2C1=O
dTM [11]: -1 K

Structure (SMILES): CCC(=O)N1CCN(c2ccc(-n3c(=O)ccc4cnc5ccc(-c6cnc7ccccc7c6)cc5c43)cc2C(F)(F)F)CC1
% of control [12]: 50%

Second part, the compound after the results:

pXC50 [1]: < 4.5 M
Structure (SMILES): CCn1c(-c2nc3cc(C(=O)N4CCCC(N)C4)ccc3n2C)cc2ccccc21 (centres undefined)

% of control ([5]; at 1 µM): 27% | % of control ([5]; at 5 µM): 4%
Structure (SMILES): C=CC(=O)Nc1cccc(C(=O)Nc2ccc(Nc3cc(-c4[nH]c(SC)nc4C)ccn3)cc2)c1

dTM [7]: -0.6 K
Structure (SMILES): CN(C(=O)c1cnn2cccnc12)c1cc2c(cc1N1CCOCC1)C(=O)N(C[C@@H](F)C(C)(C)O)C2
